In patent publication US12122778B2, “Activating pyruvate kinase R” (Novo Nordisk Health Care AG, priority 2018, dated 2024) one finds activation, AC50 and Emax data, which are given here for 13 compounds.

SMILES strings stand for the structures. A value given as a limit tells only on which side of the number the result lay.

One assay deals with PKR(G332S) (Homo sapiens, UniProt P30613, G332S). Put plainly: Luminescence Biochemical Assay (Kinase Glo Plus), PKR G332S mutant. The settings on record: with FBP; for activation at 1.54 µM: 1.54 μM compound, read-out: AC50 LUM KGP FBP % Fold@1.54 μM mean; for AC50: read-out: AC50 LUM KGP FBP AC50 μM gmean (column A); for Emax: read-out: AC50 LUM KGP FBP MAX % FOLD mean. The protocol:
In some embodiments, a PKR Activating Compound can have: (1) an AC50 value of less than 0.1 μM (e.g., compounds with AC50 values of “+++” in Table 13), 0.1-1.0 μM (e.g., compounds with AC50 values of “++” in Table 13), or 1.01-40 μM (e.g., compounds with AC50 values of “+” in Table 13); (2) a MAX % Fold of 75%-250%, 250-500%, or 75%-500%; and/or (3) a % Fold@1.54 μM of 75%-250%, 250-500%, or 75%-500%. In some embodiments, a PKR Activating Compound has (1) an AC50 value of less than 1.0 μM; (2) a MAX % Fold of 75%-500%; and/or (3) a % Fold@1.54 μM of 75%-500%.
The phosphorylation of Adenosine-5′-diphosphate (ADP) by various mutants of PKR was determined by the Kinase Glo Plus Assay (Promega) in the presence or absence of FBP [D-Fructose-1,6-diphosphate; BOC Sciences, CAS: 81028-91-3] as follows. Unless otherwise indicated, all reagents were purchased from Sigma-Aldrich. All reagents were prepared in buffer containing 50 mM Tris-HCl, 100 mM KCl, 5 mM MgCl2, and 0.01% Triton X100, 0.03% BSA, and 1 mM DTT. Enzyme and PEP [Phospho(enol) pyruvic acid] were added at 2× to all wells of an assay-ready plate containing serial dilutions of test compounds or DMSO vehicle. Final enzyme concentrations for PKR(wt), PKR(R510Q), and PKR(G332S) were 0.8 nM, 0.8 nM, and 10 nM respectively. Final PEP concentration was 100 μM. The Enzyme/PEP mixture was incubated with compounds for 30 minutes at RT before the assay was initiated with the addition of 2×ADP [Adenosine-5′-diphosphate] and KinaseGloPlus. Final concentration of ADP was 100 μM. […] For assays containing FBP, that reagent is added at 30 μM upon reaction initiation. Reactions were allowed to progress for 45 minutes at RT until luminescence was recorded by the BMG PHERAstar FS Multilabel Reader. All compounds were tested in triplicate at concentrations ranging from 42.5 μM to 2.2 nM in 0.83% DMSO.
Luminescence values were converted to % Fold increase by normalizing to the average of the DMSO control and multiplying by 100. Max, min, slope and AC50 were determined by the standard four parameter fit algorithm of ActivityBase XE Runner. Compounds were evaluated with three parameters—AC50, MAX % Fold, and % Fold@1.54 μM (FIG. 1). The AC50 value for a compound is the concentration (μM) corresponding to the midway between the maximum and minimum values of the four parameter logistic curve fit (i.e., at which the % fold increase along the four parameter logistic curve fit is halfway between MAX % Fold and MIN % Fold (% Fold Midpoint)), MAX % Fold is the highest fold increase observed at any concentration of compound, and % Fold@1.54 μM is the fold increase at a compound concentration of 1.54 μM. The parameter % Fold@1.54 μM was selected to capture elements of both the AC50 and MAX % Fold and to provide a ranking based on both potency and effect. The compound concentration of 1.54 μM was chosen as one that can optimally differentiate the set of compounds based on the range of activities observed.
As set forth in Table 13 below, AC50 values (columns A, D, G) are defined as follows: ≤0.1 μM (+++); >0.1 μM and ≤1.0 μM (++); >1.0 μM and ≤40 μM (+); >40 μM (0). Max % FOLD values (columns B, E, H) are defined as follows: ≤75% (+); >75% and ≤250% (++); >250% and ≤500% (+++). % Fold@1.54 μM values (columns C, F, J) are defined as follows: ≤75% (+); >75% and ≤250% (++); >250% and ≤50000 (+++).

The next assay concerns the target PKR(R510Q) (Homo sapiens, UniProt P30613, R510Q). Put plainly: Luminescence Biochemical Assay (Kinase Glo Plus), PKR R510Q mutant. The note with it: without FBP; for activation at 1.54 µM: 1.54 μM compound, read-out: AC50 LUM KGP woFBP % Fold@1.54 μM mean; for AC50: read-out: AC50 LUM KGP woFBP AC50 μM gmean; for Emax: read-out: AC50 LUM KGP woFBP MAX % FOLD mean. (In Kinase-Glo more light means more ATP remaining.)

PKR(R510Q), sequence (P30613 whole entry R510Q): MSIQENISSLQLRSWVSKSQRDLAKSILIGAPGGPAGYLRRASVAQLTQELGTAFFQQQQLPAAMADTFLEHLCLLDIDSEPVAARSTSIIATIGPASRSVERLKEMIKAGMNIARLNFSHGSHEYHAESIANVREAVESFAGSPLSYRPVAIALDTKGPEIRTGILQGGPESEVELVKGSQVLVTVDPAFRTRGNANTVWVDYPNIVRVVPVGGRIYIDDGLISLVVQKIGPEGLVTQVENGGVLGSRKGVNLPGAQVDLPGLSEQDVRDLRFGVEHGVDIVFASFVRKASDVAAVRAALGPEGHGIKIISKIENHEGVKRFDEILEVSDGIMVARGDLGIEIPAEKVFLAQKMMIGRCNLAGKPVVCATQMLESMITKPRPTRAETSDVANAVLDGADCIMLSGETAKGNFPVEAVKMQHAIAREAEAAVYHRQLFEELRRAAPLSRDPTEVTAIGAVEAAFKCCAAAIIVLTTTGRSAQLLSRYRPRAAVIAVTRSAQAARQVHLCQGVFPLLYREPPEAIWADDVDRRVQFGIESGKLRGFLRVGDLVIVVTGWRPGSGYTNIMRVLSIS
PKR(G332S), sequence (P30613 whole entry G332S): as the sequence (P30613 whole entry R510Q) above, with G332S, Q510R counted along it

For the compound `COc1cccc(CNC(=O)N2CC3=C(C2)CN(S(=O)(=O)c2ccc(F)cc2)C3)c1` [Example 20-4, 5-(4-Fluorobenzenesulfonyl)-N-[(3-methoxyphenyl)methyl]-1H,2H,3H,4H,5H,6H-pyrrolo[3,4-c]pyrrole-2-carboxamide], on PKR(G332S), the activation at 1.54 µM fell in the range of 75 to 250%, the AC50 lay within 0.1 to 1 µM and the Emax was in the range of 75 to 250%. At PKR(R510Q), the activation at 1.54 µM lay within 75 to 250%, the AC50 was 0.1 to 1 µM and the Emax is 75 to 250%.
For `COc1ccccc1CNC(=O)N1CC2=C(C1)CN(S(=O)(=O)c1ccc(F)cc1)C2` [Example 20-6, 5-(4-Fluorobenzenesulfonyl)-N-[(2-methoxyphenyl)methyl]-1H,2H,3H,4H,5H,6H-pyrrolo[3,4-c]pyrrole-2-carboxamide], at PKR(G332S), the activation at 1.54 µM lay in the range of 75 to 250%, the AC50 is at most 0.1 µM and the Emax is 75 to 250%. On PKR(R510Q), the activation at 1.54 µM lay within 75 to 250%, the AC50 was in the range of 0.1 to 1 µM and the Emax lay in the range of 250 to 500%.
With `COc1cccc(CNC(=O)N2CC3=C(C2)CN(S(=O)(=O)c2cccc(F)c2)C3)c1` [Example 20-8, 5-(3-Fluorobenzenesulfonyl)-N-[(3-methoxyphenyl)methyl]-1H,2H,3H,4H,5H,6H-pyrrolo[3,4-c]pyrrole-2-carboxamide], on PKR(G332S), the activation at 1.54 µM was 75 to 250%, the AC50 lay in the range of 1 to 40 µM and the Emax was in the range of 75 to 250%. Besides, on PKR(R510Q), the activation at 1.54 µM is 75 to 250%, the AC50 was 0.1 to 1 µM and the Emax was 75 to 250%.
As to `COc1ccc(CNC(=O)N2CC3=C(C2)CN(S(=O)(=O)c2cccc4cnccc24)C3)cc1` [Example 20-11, 5-(Isoquinoline-5-sulfonyl)-N-[(4-methoxyphenyl)methyl]-1H,2H,3H,4H,5H,6H-pyrrolo[3,4-c]pyrrole-2-carboxamide], at PKR(G332S), the activation at 1.54 µM was 75 to 250%, the AC50 lay in the range of 1 to 40 µM and the Emax fell in the range of 75 to 250%. Besides, at PKR(R510Q), the activation at 1.54 µM lay in the range of 75 to 250%, the AC50 is at most 0.1 µM and the Emax lay in the range of 75 to 250%.
Turning to `COc1cccc(CNC(=O)N2CC3=C(C2)CN(S(=O)(=O)c2cccc4cnccc24)C3)c1` [Example 20-12, 5-(Isoquinoline-5-sulfonyl)-N-[(3-methoxyphenyl)methyl]-1H,2H,3H,4H,5H,6H-pyrrolo[3,4-c]pyrrole-2-carboxamide], at PKR(G332S), the activation at 1.54 µM fell in the range of 75 to 250%, the AC50 lay in the range of 1 to 40 µM and the Emax is 75 to 250%. Moreover, on PKR(R510Q), the activation at 1.54 µM is 75 to 250%, the AC50 fell in the range of 1 to 40 µM and the Emax lay in the range of 75 to 250%.
As to `COc1ccccc1CNC(=O)N1CC2=C(C1)CN(S(=O)(=O)c1cccc3nonc13)C2` [Example 20-19, 5-(2,1,3-Benzoxadiazole-4-sulfonyl)-N-[(2-methoxyphenyl)methyl]-1H,2H,3H,4H,5H,6H-pyrrolo[3,4-c]pyrrole-2-carboxamide], on PKR(G332S), the activation at 1.54 µM was 75 to 250%, the AC50 lay within 1 to 40 µM and the Emax is 75 to 250%. Further, at PKR(R510Q), the activation at 1.54 µM lay within 75 to 250%, the AC50 lay within 0.1 to 1 µM and the Emax was 250 to 500%.
Turning to `O=C(NCc1ccc(F)cc1)N1CC2=C(C1)CN(S(=O)(=O)c1ccc(F)cc1)C2` [Example 20-20, 5-(4-Fluorobenzenesulfonyl)-N-[(4-fluorophenyl)methyl]-1H,2H,3H,4H,5H,6H-pyrrolo[3,4-c]pyrrole-2-carboxamide], at PKR(G332S), the activation at 1.54 µM was in the range of 75 to 250%, the AC50 was at most 0.1 µM and the Emax is 75 to 250%. Further, at PKR(R510Q), the activation at 1.54 µM fell in the range of 75 to 250%, the AC50 was 0.1 to 1 µM and the Emax was in the range of 250 to 500%.
As for `O=C(NCc1ccc(F)cc1)N1CC2=C(C1)CN(S(=O)(=O)c1ccc3occc3c1)C2` [Example 20-23, 5-(1-Benzofuran-5-sulfonyl)-N-[(4-fluorophenyl)methyl]-1H,2H,3H,4H,5H,6H-pyrrolo[3,4-c]pyrrole-2-carboxamide], at PKR(G332S), the activation at 1.54 µM was 75 to 250%, the AC50 lay in the range of 1 to 40 µM and the Emax lay in the range of 75 to 250%. On PKR(R510Q), the activation at 1.54 µM was 75 to 250%, the AC50 was in the range of 0.1 to 1 µM and the Emax fell in the range of 250 to 500%.
As to `O=C(NCc1ccc(F)cc1)N1CC2=C(C1)CN(S(=O)(=O)c1cccc3nonc13)C2` [Example 20-24, 5-(2,1,3-Benzoxadiazole-4-sulfonyl)-N-[(4-fluorophenyl)methyl]-1H,2H,3H,4H,5H,6H-pyrrolo[3,4-c]pyrrole-2-carboxamide], on PKR(G332S), the activation at 1.54 µM was in the range of 75 to 250%, the AC50 lay in the range of 1 to 40 µM and the Emax is 75 to 250%. Further, on PKR(R510Q), the activation at 1.54 µM was in the range of 75 to 250%, the AC50 is 0.1 to 1 µM and the Emax lay within 250 to 500%.
Turning to `COc1cccc(CNC(=O)N2CC3=C(C2)CN(S(=O)(=O)c2ccc4nsnc4c2)C3)c1` [Example 20-25, 5-(2,1,3-Benzothiadiazole-5-sulfonyl)-N-[(3-methoxyphenyl)methyl]-1H,2H,3H,4H,5H,6H-pyrrolo-[3,4-c]pyrrole-2-carboxamide], on PKR(G332S), the activation at 1.54 µM was 75 to 250%, the AC50 fell in the range of 0.1 to 1 µM and the Emax was in the range of 75 to 250%. Moreover, at PKR(R510Q), the activation at 1.54 µM was 75 to 250%, the AC50 lay in the range of 1 to 40 µM and the Emax was in the range of 75 to 250%.
On to `COc1ccccc1CNC(=O)N1CC2=C(C1)CN(S(=O)(=O)c1ccc3nsnc3c1)C2` [Example 20-27, 5-(2,1,3-Benzothiadiazole-5-sulfonyl)-N-[(2-methoxyphenyl)methyl]-1H,2H,3H,4H,5H,6H-pyrrolo[3,4-c]pyrrole-2-carboxamide], for which, at PKR(G332S), the activation at 1.54 µM lay within 75 to 250%, the AC50 lay in the range of 1 to 40 µM and the Emax was in the range of 75 to 250%. On PKR(R510Q), the activation at 1.54 µM lay in the range of 75 to 250%, the AC50 fell in the range of 1 to 40 µM and the Emax fell in the range of 250 to 500%.
Take `O=C(NCc1ccc(F)cc1)N1CC2=C(C1)CN(S(=O)(=O)c1ccc3nsnc3c1)C2` [Example 20-28, 5-(2,1,3-Benzothiadiazole-5-sulfonyl)-N-[(4-fluorophenyl)methyl]-1H,2H,3H,4H,5H,6H-pyrrolo[3,4-c]pyrrole-2-carboxamide]: on PKR(G332S), the activation at 1.54 µM lay in the range of 75 to 250%, the AC50 was in the range of 1 to 40 µM and the Emax fell in the range of 75 to 250%. Moreover, at PKR(R510Q), the activation at 1.54 µM was in the range of 75 to 250%, the AC50 was 1 to 40 µM and the Emax lay in the range of 75 to 250%.
As to `O=C(NCc1ccc(F)cc1)N1CC2=C(C1)CN(S(=O)(=O)c1cccc3cnccc13)C2` [Example 20-41, N-[(4-fluorophenyl)methyl]-5-(isoquinoline-5-sulfonyl)-1H,2H,3H,4H,5H,6H-pyrrolo[3,4-c]pyrrole-2-carboxamide], at PKR(G332S), the activation at 1.54 µM lay within 75 to 250%, the AC50 fell in the range of 1 to 40 µM and the Emax lay in the range of 75 to 250%. Also, at PKR(R510Q), the activation at 1.54 µM fell in the range of 75 to 250%, the AC50 lay within 1 to 40 µM and the Emax lay in the range of 75 to 250%.

For orientation: AC50 means the concentration at which the activity in the assay is half-maximal.
